The record followed here is ChEMBL document CHEMBL1201862, “PubChem BioAssay data set” (2004).

SMILES strings stand for the structures.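 Cultured in 96-well plates, cells were exposed to test compound for 48 hours across five concentrations. The concentration for 50% growth inhibition is given as GI50.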 Calls of active or inactive are those of the source. Cut-off read from the data, not from the text of the source: active = GI50 up to about 1.1 µM and inactive = higher.

Among the test systems are MDA-N; T47D; Hs-578T; OVCAR-5; TK-10; SK-MEL-2; MOLT-4; SF-268; SK-MEL-5; HT-29; RXF 393; UO-31; SNB-75; SF-295; M14; HCC 2998; HOP-92; UACC-62; A498.
What all share (assay): inhibition of tumour cell growth, NCI panel, 48 h

Consider `CC1(C)N=C(/C(C#N)=[N+](/[O-])C(=O)c2ccccc2)C(C)(C)N1O`, for which the GI50 in the assay with MDA-N, in the assay on T47D, in the assay on Hs-578T, with OVCAR-5, with TK-10 and in the assay with SK-MEL-2 was > 100 µM (inactive) each time. The GI50 with MOLT-4, in the assay on SF-268, with SK-MEL-5, in the assay on HT-29, in the assay on RXF 393 and in the assay on UO-31 was > 100 µM (inactive) throughout. Also, the GI50 in the assay with SNB-75, in the assay on SF-295, in the assay on M14, with HCC 2998, in the assay on HOP-92 and in the assay with UACC-62 was > 100 µM (inactive) each time.
For `CCN(CC)c1ccc2nc3ccc(/N=N/c4c(O)ccc5ccccc45)cc3[n+](-c3ccccc3)c2c1`, the GI50 in the assay on MDA-N, in the assay with T47D, in the assay on Hs-578T, in the assay with OVCAR-5, in the assay with TK-10 and with SK-MEL-2 was > 100 µM (inactive) in each case. Moreover, the GI50 in the assay on MOLT-4, with SF-268, in the assay on SK-MEL-5, in the assay with HT-29, in the assay on RXF 393 and in the assay with UO-31 was > 100 µM (inactive) throughout. Further, the GI50 with SNB-75, with SF-295, in the assay with M14, with HOP-92 and in the assay on UACC-62 was > 100 µM (inactive) throughout.
In the case of `COc1ccc(-n2c(C)nc3ccc(/N=C/c4ccccc4)cc3c2=O)cc1`, the GI50 with MDA-N, in the assay with T47D, in the assay on Hs-578T, with A498, with OVCAR-5 and with TK-10 was > 100 µM (inactive) in each case. Moreover, the GI50 in the assay on MOLT-4, in the assay on SF-268, in the assay on SK-MEL-5, in the assay with HT-29, with RXF 393 and in the assay with UO-31 was > 100 µM (inactive) in each case. In addition, the GI50 in the assay with SNB-75, in the assay on SF-295, in the assay on HCC 2998 and in the assay on UACC-62 was > 100 µM (inactive) throughout.
For `Clc1cc2ncn(C3CCCCO3)c2cc1Cl` (stereo unspecified), the GI50 was 65.8 µM (inactive) with MDA-N; 44.6 µM (inactive) with T47D; 23.6 µM (inactive) in the assay on Hs-578T; > 100 µM (inactive) with OVCAR-5; > 100 µM (inactive) with SK-MEL-2; 33.9 µM (inactive) with MOLT-4. For the same compound, the GI50 in the assay on SF-268 is 34.6 µM (inactive); with SK-MEL-5, 38.4 µM (inactive); in the assay on HT-29, 35.9 µM (inactive); with RXF 393 it was 44.7 µM (inactive); in the assay on UO-31 it was 16.1 µM (inactive); in the assay with SNB-75, 11.7 µM (inactive). The GI50 in the assay with SF-295 was 70.5 µM (inactive); in the assay with M14, 71.8 µM (inactive); in the assay with HCC 2998, 64.6 µM (inactive); in the assay with UACC-62, 53.5 µM (inactive).
Regarding `CC(C)/C(Cl)=N\OC(=O)Nc1ccc(F)cc1`, the GI50 with MDA-N is 8.26 µM (inactive); in the assay on T47D it was 6.53 µM (inactive); in the assay on Hs-578T it was 24.7 µM (inactive); in the assay with A498, 14.2 µM (inactive); in the assay with OVCAR-5 it was 14.6 µM (inactive); in the assay with TK-10 it was 4.8 µM (inactive). In addition, the GI50 in the assay with SK-MEL-2 was 17.7 µM (inactive); in the assay with MOLT-4, 1.66 µM (inactive); in the assay on SF-268, 24.6 µM (inactive); in the assay with SK-MEL-5, 13.6 µM (inactive); in the assay on HT-29 it was 2.04 µM (inactive); in the assay with RXF 393, 16.1 µM (inactive). The GI50 with UO-31 is 5.85 µM (inactive); with SF-295 it was 14.4 µM (inactive); in the assay with M14 it was 4.06 µM (inactive); in the assay on HCC 2998, 15.7 µM (inactive); with UACC-62, 16 µM (inactive).
Regarding `CN(C)c1nc(Cl)c2c(-c3ccccc3)c(-c3ccccc3)oc2n1`, the GI50 in the assay on T47D is 83 µM (inactive); with Hs-578T, 62.1 µM (inactive); with A498, > 100 µM (inactive); in the assay with OVCAR-5, > 100 µM (inactive); in the assay on TK-10, > 100 µM (inactive); in the assay on MOLT-4, 32.2 µM (inactive). Moreover, the GI50 in the assay on SF-268 is 36 µM (inactive); in the assay with SK-MEL-5, 41.7 µM (inactive); in the assay with HT-29 it was 58.7 µM (inactive); in the assay with RXF 393 it was 19.4 µM (inactive); in the assay on UO-31 it was > 100 µM (inactive); with SNB-75 it was 35.8 µM (inactive). The GI50 in the assay with SF-295 is 58.1 µM (inactive); with M14 it was > 100 µM (inactive); in the assay on HCC 2998, 64.6 µM (inactive); with HOP-92 it was 81.5 µM (inactive); in the assay on UACC-62 it was 95.5 µM (inactive).
As for `Oc1ccccc1/C=N/c1ccc(Oc2ccc(Cl)cc2)c(Cl)c1`, the GI50 is 5.97 µM (inactive) with T47D; 19.7 µM (inactive) with Hs-578T; 11.5 µM (inactive) with A498; 26.1 µM (inactive) in the assay with OVCAR-5; 39.5 µM (inactive) in the assay on TK-10; 13.6 µM (inactive) with SK-MEL-2. Moreover, the GI50 was 30.1 µM (inactive) with MOLT-4; 17.9 µM (inactive) in the assay on SF-268; 20.8 µM (inactive) in the assay with SK-MEL-5; 19.5 µM (inactive) in the assay with HT-29; 11.1 µM (inactive) in the assay with UO-31; 21.1 µM (inactive) in the assay with SNB-75. For the same compound, the GI50 is 18.7 µM (inactive) in the assay on SF-295; 18.5 µM (inactive) with M14; 18.5 µM (inactive) with HCC 2998; 20 µM (inactive) in the assay with HOP-92; 24.9 µM (inactive) in the assay with UACC-62.
As to `CCC(C)C(NC(=O)C(CCCC[N+](=N)N)NC(=O)C(CCCC[N+](=N)N)NC(=O)c1ccc(OC)cc1)C(=O)NC(CCCC[N+](=N)N)C(=O)N1CCCC1C(=O)NC(CCCCN)C(=O)NC(CC(C)C)C(N)=O` (stereo unspecified), the GI50 in the assay with MDA-N, in the assay on T47D, in the assay with Hs-578T, in the assay on A498, in the assay on OVCAR-5 and in the assay on TK-10 was > 100 µM (inactive) throughout. Also, the GI50 in the assay with MOLT-4, with SF-268, in the assay on SK-MEL-5, in the assay with HT-29, in the assay with RXF 393 and with UO-31 was > 100 µM (inactive) in each case. Also, the GI50 in the assay on SNB-75, with SF-295, in the assay on M14, in the assay on HCC 2998 and in the assay on UACC-62 was > 100 µM (inactive) each time.
Take `CC1=C(C)C(=O)C(C2=CC(=O)c3ccccc3C2=O)=C(C2=CC(=O)c3ccccc3C2=O)C1=O`: the GI50 in the assay on MDA-N was 0.82 µM (active); with T47D, 6.95 µM (inactive); in the assay with Hs-578T, 3.62 µM (inactive); with A498, 23.4 µM (inactive); in the assay on OVCAR-5, 24.3 µM (inactive); in the assay on TK-10, 3.38 µM (inactive). The GI50 in the assay on SK-MEL-2 is 5.9 µM (inactive); in the assay with SF-268 it was 8.15 µM (inactive); in the assay on SK-MEL-5 it was 1.4 µM (inactive); in the assay with HT-29 it was 0.684 µM (active); in the assay on RXF 393 it was 2.52 µM (inactive); in the assay with UO-31 it was 2.84 µM (inactive). In addition, the GI50 in the assay with SNB-75 is 13.2 µM (inactive); with SF-295, 12.3 µM (inactive); in the assay with M14 it was 8.49 µM (inactive); in the assay on HCC 2998, 6.95 µM (inactive); in the assay with UACC-62 it was 7.19 µM (inactive).
In the case of `CN(CCCn1ccnc1[N+](=O)[O-])CCCn1ccnc1[N+](=O)[O-]`, the GI50 with MDA-N, with T47D, with Hs-578T, in the assay on A498, in the assay with OVCAR-5 and with TK-10 was > 100 µM (inactive) throughout. Further, the GI50 in the assay on SK-MEL-2 is > 100 µM (inactive); in the assay on MOLT-4 it was 0.0861 µM (active); with SF-268 it was > 100 µM (inactive); in the assay with SK-MEL-5, > 100 µM (inactive); with HT-29 it was > 100 µM (inactive); with RXF 393, > 100 µM (inactive). For the same compound, the GI50 in the assay on UO-31, in the assay on SNB-75, with SF-295, in the assay on M14 and in the assay on UACC-62 was > 100 µM (inactive) in each case.
Consider `CCOC(=O)/C=C(\C(=O)OCC)n1cc(C)c(=O)n(Cc2cn(COCCOC(C)=O)nn2)c1=O`, for which the GI50 in the assay with MDA-N was 20.2 µM (inactive); with T47D, 21.3 µM (inactive); in the assay with Hs-578T, 17.1 µM (inactive); with OVCAR-5, 14.5 µM (inactive); in the assay on TK-10 it was 4.97 µM (inactive); in the assay with SK-MEL-2, 17.3 µM (inactive). In addition, the GI50 in the assay with MOLT-4 is 3.79 µM (inactive); in the assay on SF-268, 14.7 µM (inactive); in the assay with SK-MEL-5, 20.9 µM (inactive); with HT-29, 7.33 µM (inactive); with RXF 393 it was 11.6 µM (inactive); in the assay with UO-31 it was 14 µM (inactive). The GI50 in the assay with SNB-75 is 21 µM (inactive); in the assay on SF-295, 19.5 µM (inactive); in the assay on HCC 2998, 22.9 µM (inactive); in the assay on HOP-92, 1.61 µM (inactive); with UACC-62 it was 17.8 µM (inactive).
